System: NCI-H1417 complex spheroids, growth % test/control
Assay: Anticancer human tumor NCI-H1417 cell line growth inhibition [Asc];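 also: spheroids exposed to compounds for 7 days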;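 as to viability, T/C: 100% = DMSO vehicle control wells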
Details: for IC50: curve of first compound; for viability, T/C: stronger effect = lower value
In short: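 Complex solid-tumor spheroids incorporating human endothelial and mesenchymal stem cells received single agents or combinations over half-log dilution ranges anchored to clinical Cmax.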

[1] = second compound 0.01 µM, first compound 0.00316 µM
[2] = second compound 0.01 µM, first compound 0.01 µM
[3] = second compound 0.01 µM, first compound 0.0316 µM
[4] = second compound 0.01 µM, first compound 0.1 µM
[5] = second compound 0.01 µM, first compound 0.316 µM
[6] = second compound 0.01 µM, first compound 1 µM
[7] = second compound 0.0316 µM, first compound 0.00316 µM
[8] = second compound 0.0316 µM, first compound 0.01 µM
[9] = second compound 0.0316 µM, first compound 0.0316 µM
[10] = second compound 0.0316 µM, first compound 0.1 µM
[11] = second compound 0.0316 µM, first compound 0.316 µM
[12] = second compound 0.0316 µM, first compound 1 µM
[13] = second compound 0.1 µM, first compound 0.00316 µM
[14] = second compound 0.1 µM, first compound 0.01 µM
[15] = second compound 0.1 µM, first compound 0.0316 µM
[16] = second compound 0.1 µM, first compound 0.1 µM
[17] = second compound 0.1 µM, first compound 0.316 µM
[18] = second compound 0.1 µM, first compound 1 µM
[19] = second compound 0.316 µM, first compound 0.00316 µM
[20] = second compound 0.316 µM, first compound 0.01 µM
[21] = second compound 0.316 µM, first compound 0.0316 µM
[22] = second compound 0.316 µM, first compound 0.1 µM
[23] = second compound 0.316 µM, first compound 0.316 µM
[24] = second compound 0.316 µM, first compound 1 µM
[25] = second compound 1 µM, first compound 0.00316 µM
[26] = second compound 1 µM, first compound 0.01 µM
[27] = second compound 1 µM, first compound 0.0316 µM
[28] = second compound 1 µM, first compound 0.1 µM
[29] = second compound 1 µM, first compound 0.316 µM
[30] = second compound 1 µM, first compound 1 µM

Compound: CCN1CCN(Cc2ccc(Nc3ncc(F)c(-c4cc(F)c5nc(C)n(C(C)C)c5c4)n3)nc2)CC1 + CNC(C)C(=O)NC1CN(S(=O)(=O)c2cccc(S(=O)(=O)N3CCC4CCC(C(=O)NC(c5ccccc5)c5ccccc5)N4C(=O)C(NC(=O)C(C)NC)C3)c2)CCC2CCC(C(=O)NC(c3ccccc3)c3ccccc3)N2C1=O
- IC50 (second compound 0.01 µM): > 1000 nM
- IC50 (second compound 0.0316 µM): > 1000 nM
- IC50 (second compound 0.1 µM): > 1000 nM
- IC50 (second compound 0.316 µM): > 1000 nM
- IC50 (second compound 1 µM): > 1000 nM
- viability, T/C [1]: 100%
- viability, T/C [2]: 108%
- viability, T/C [3]: 106%
- viability, T/C [4]: 99.7%
- viability, T/C [5]: 96.5%
- viability, T/C [6]: 111%
- viability, T/C [7]: 102%
- viability, T/C [8]: 103%
- viability, T/C [9]: 104%
- viability, T/C [10]: 105%
- viability, T/C [11]: 97.4%
- viability, T/C [12]: 103%
- viability, T/C [13]: 93.2%
- viability, T/C [14]: 101%
- viability, T/C [15]: 99.2%
- viability, T/C [16]: 97.8%
- viability, T/C [17]: 103%
- viability, T/C [18]: 109%
- viability, T/C [19]: 99.3%
- viability, T/C [20]: 105%
- viability, T/C [21]: 90.6%
- viability, T/C [22]: 99.9%
- viability, T/C [23]: 95.2%
- viability, T/C [24]: 97.7%
- viability, T/C [25]: 105%
- viability, T/C [26]: 109%
- viability, T/C [27]: 101%
- viability, T/C [28]: 110%
- viability, T/C [29]: 90%
- viability, T/C [30]: 93.7%

Compound: NC(=O)C(=Cn1cnc(-c2cc(C(F)(F)F)cc(C(F)(F)F)c2)n1)c1cncnc1 + CNC(C)C(=O)NC1CN(S(=O)(=O)c2cccc(S(=O)(=O)N3CCC4CCC(C(=O)NC(c5ccccc5)c5ccccc5)N4C(=O)C(NC(=O)C(C)NC)C3)c2)CCC2CCC(C(=O)NC(c3ccccc3)c3ccccc3)N2C1=O
- IC50 (second compound 0.01 µM): > 300 nM
- IC50 (second compound 0.0316 µM): 299 nM
- IC50 (second compound 0.1 µM): 275 nM
- IC50 (second compound 0.316 µM): 265 nM
- IC50 (second compound 1 µM): 249 nM
- viability, T/C (second compound 0.01 µM, first compound 0.000949 µM): 103%
- viability, T/C (second compound 0.01 µM, first compound 0.003 µM): 93.3%
- viability, T/C (second compound 0.01 µM, first compound 0.00949 µM): 99.5%
- viability, T/C (second compound 0.01 µM, first compound 0.03 µM): 103%
- viability, T/C (second compound 0.01 µM, first compound 0.0949 µM): 89.6%
- viability, T/C (second compound 0.01 µM, first compound 0.3 µM): 63.3%
- viability, T/C (second compound 0.0316 µM, first compound 0.000949 µM): 111%
- viability, T/C (second compound 0.0316 µM, first compound 0.003 µM): 94.2%
- viability, T/C (second compound 0.0316 µM, first compound 0.00949 µM): 93%
- viability, T/C (second compound 0.0316 µM, first compound 0.03 µM): 102%
- viability, T/C (second compound 0.0316 µM, first compound 0.0949 µM): 83.5%
- viability, T/C (second compound 0.0316 µM, first compound 0.3 µM): 49.6%
- viability, T/C (second compound 0.1 µM, first compound 0.000949 µM): 89.3%
- viability, T/C (second compound 0.1 µM, first compound 0.003 µM): 104%
- viability, T/C (second compound 0.1 µM, first compound 0.00949 µM): 105%
- viability, T/C (second compound 0.1 µM, first compound 0.03 µM): 90.2%
- viability, T/C (second compound 0.1 µM, first compound 0.0949 µM): 76%
- viability, T/C (second compound 0.1 µM, first compound 0.3 µM): 47.8%
- viability, T/C (second compound 0.316 µM, first compound 0.000949 µM): 110%
- viability, T/C (second compound 0.316 µM, first compound 0.003 µM): 98.7%
- viability, T/C (second compound 0.316 µM, first compound 0.00949 µM): 112%
- viability, T/C (second compound 0.316 µM, first compound 0.03 µM): 92.2%
- viability, T/C (second compound 0.316 µM, first compound 0.0949 µM): 86.7%
- viability, T/C (second compound 0.316 µM, first compound 0.3 µM): 45.1%
- viability, T/C (second compound 1 µM, first compound 0.000949 µM): 91.5%
- viability, T/C (second compound 1 µM, first compound 0.003 µM): 92.7%
- viability, T/C (second compound 1 µM, first compound 0.00949 µM): 93%
- viability, T/C (second compound 1 µM, first compound 0.03 µM): 94.8%
- viability, T/C (second compound 1 µM, first compound 0.0949 µM): 86.9%
- viability, T/C (second compound 1 µM, first compound 0.3 µM): 42.6%

Compound: O=C(c1ccc(F)c(F)c1Nc1ccc(I)cc1F)N1CC(O)([C@@H]2CCCCN2)C1 + CNC(C)C(=O)NC1CN(S(=O)(=O)c2cccc(S(=O)(=O)N3CCC4CCC(C(=O)NC(c5ccccc5)c5ccccc5)N4C(=O)C(NC(=O)C(C)NC)C3)c2)CCC2CCC(C(=O)NC(c3ccccc3)c3ccccc3)N2C1=O
- IC50 (second compound 0.01 µM): > 1000 nM
- IC50 (second compound 0.0316 µM): > 1000 nM
- IC50 (second compound 0.1 µM): > 1000 nM
- IC50 (second compound 0.316 µM): > 1000 nM
- IC50 (second compound 1 µM): > 1000 nM
- viability, T/C [1]: 107%
- viability, T/C [2]: 102%
- viability, T/C [3]: 95%
- viability, T/C [4]: 103%
- viability, T/C [5]: 99.5%
- viability, T/C [6]: 85.3%
- viability, T/C [7]: 107%
- viability, T/C [8]: 96.6%
- viability, T/C [9]: 92.7%
- viability, T/C [10]: 102%
- viability, T/C [11]: 96.7%
- viability, T/C [12]: 103%
- viability, T/C [13]: 101%
- viability, T/C [14]: 90.8%
- viability, T/C [15]: 95.3%
- viability, T/C [16]: 98.4%
- viability, T/C [17]: 99.4%
- viability, T/C [18]: 91.2%
- viability, T/C [19]: 88.6%
- viability, T/C [20]: 104%
- viability, T/C [21]: 110%
- viability, T/C [22]: 90.9%
- viability, T/C [23]: 105%
- viability, T/C [24]: 101%
- viability, T/C [25]: 88%
- viability, T/C [26]: 93.8%
- viability, T/C [27]: 82.8%
- viability, T/C [28]: 95.8%
- viability, T/C [29]: 91.4%
- viability, T/C [30]: 102%

Source: PubChem BioAssay AID1963440 (Molecular Pharmacology Branch, DTP, NCI, 2024)
